# Reference: patent US5599789A, “Method for the treatment of tumours and sarcomas” (Amrad Corporation Limited, priority 1991, dated 1997)
# Experiments:
# Assay type in all cases: cell-based, human
# [1] = test system: Ewing's Sarcoma cell line Al (uncloned); test: Colony formation in semi-solid agar cultures, Al (uncloned) cells; settings: Al(uncloned), 5,000 cells, day 18
# Description: (§1) Tumour cells obtained from biopsy and bone marrow specimens from patients with Ewing's Sarcoma were used in these studies. Approval for this project has been obtained from the Ethics Committee of the Royal Children's Hospital.
# (§2) Single cell suspensions of tumour cells were obtained by mechanical disruption with an 18G or 21G needle or by pipetting, followed by incubation with dispase II (Boehringer) at a concentration of 1.2 units per ml for 10 minutes at 37° C. Prior to the addition to agar-medium the cells were vortexed gently to prevent clumping.
# (§3) Clonal cell lines were grown in Iscove's Modified Dulbecco's Medium (IMDM) supplemented with 10% v/v foetal calf serum (FCS; CSL Limited, Melbourne, Australia) and were passaged either weekly or twice weekly. The characteristics of the Ewing Sarcoma cell lines used herein as described below:
# (§4) The tumour cells were immobilised in 0.3% w/v agar containing Iscove's Modified Dulbecco's Medium (IMDM) and 10% v/v FCS. […] Cultures were scored for the presence of colonies (>40 cells) or clusters (<40 cells). The number of cells plated per culture ranged from 500 to 10,000 per ml. Colonies were counted on an Olympus dissecting microscope.
# (§5) IL-1, IL-3, IL-4, IL-6, M-CSF, G-CSF, GM-CSF, Stem Cell Factor (SCF), TNFα, TGFα, TGFβ, EGF, aFGF, bFGF, NGF, IGF I, IGF II, PDGF and IFN-γ.
# (§6) The recombinant human leukaemia inhibitory factor (LIF) was obtained from AMRAD Corporation Limited, Melbourne, Australia.
# [2] = test system: Ewing's Sarcoma cell line Al-5; test: Colony formation in semi-solid agar cultures, Al-5 cells; settings: Al-5, 1,000 cells, day 18
# Description: as §1, §2, §3
# (§7) Cell lines derived from the above primary cell lines (Al and Cu) are identified by an Arabic numeral (e.g. Al-1, Al-5, Al-8 or Cu-1).
# as §4, §5, §6
# [3] = test system: Ewing's Sarcoma cell line Al-8; test: Colony formation in semi-solid agar cultures, Al-8 cells; settings: Al-8, 1,000 cells, day 18
# Description: as §1, §2, §3, §7, §4, §5, §6
# [4] = test system: Ewing's Sarcoma cell line Al-1; test: Colony formation in semi-solid agar cultures, Al-1 cells; settings: day 18
# Description: as §1, §2, §3, §7, §4, §5, §6
# [5] = test system: Ewing's Sarcoma cell line Cu-1; test: Colony formation in semi-solid agar cultures, Cu-1 cells; settings: Cu-1, 10,000 cells, day 18
# Description: as §1, §2, §3, §7, §4, §5, §6
# Ewing's Sarcoma cells = test: Colony formation in agar cultures, a number of different Ewing's cell lines (summary statements); settings: doses of Tables 1-3; TNF-α dose far above the physiological dose
# Source text: as §4
# [6] = stimulus 100 ng, mean of duplicate colony counts
# [7] = Al-1, 1,000 cells, stimulus 100 ng, mean of duplicate colony counts
# [8] = Al-1, 10,000 cells, stimulus 100 ng, mean of duplicate colony counts
substance,measurement,setting,value
"IL-4: commercially available growth factor, used at 1:3000",Colonies/Cultures,[1]; stimulus 1:3000,165
same,Colonies/Cultures,[2]; stimulus 1:3000,38
same,Colonies/Cultures,[3]; stimulus 1:3000,82
same,Colonies/Cultures,"[4]; Al-1, 1,000 cells, stimulus 1:3000",47
same,Colonies/Cultures,"[4]; Al-1, 10,000 cells, stimulus 1:3000",720
same,Colonies/Cultures,[5]; stimulus 1:3000,325
NGF: commercially available growth factor,Colonies/Cultures,[1]; [6],165
same,Colonies/Cultures,[2]; [6],32
same,Colonies/Cultures,[3]; [6],52
same,Colonies/Cultures,[4]; [7],49
same,Colonies/Cultures,[4]; [8],810
same,Colonies/Cultures,[5]; [6],360
PDGF,Colonies/Cultures,[1]; stimulus 30 ng,352
same,Colonies/Cultures,[2]; stimulus 30 ng,39
same,Colonies/Cultures,[3]; stimulus 30 ng,72
same,Colonies/Cultures,"[4]; Al-1, 1,000 cells, stimulus 30 ng",47
same,Colonies/Cultures,[5]; stimulus 30 ng,390
"SCF: commercially available growth factor, Stem Cell Factor",Colonies/Cultures,[1]; [6],225
same,Colonies/Cultures,[2]; [6],42
same,Colonies/Cultures,[3]; [6],77
same,Colonies/Cultures,[4]; [7],51
same,Colonies/Cultures,[4]; [8],950
same,Colonies/Cultures,[5]; [6],440
TGFa: commercially available growth factor,Colonies/Cultures,[1]; stimulus 20 ng,190
same,Colonies/Cultures,[3]; stimulus 20 ng,87
same,Colonies/Cultures,[5]; stimulus 20 ng,390
TGFb,Colonies/Cultures,[1]; stimulus 5 ng,175
same,Colonies/Cultures,[2]; stimulus 5 ng,41
same,Colonies/Cultures,[3]; stimulus 5 ng,45
same,Colonies/Cultures,"[4]; Al-1, 10,000 cells, stimulus 5 ng",540
same,Colonies/Cultures,[5]; stimulus 5 ng,385
TNFa,Colonies/Cultures,[1]; stimulus 5 ug,39
same,Colonies/Cultures,[2]; stimulus 5 ug,0
same,Colonies/Cultures,[3]; stimulus 5 ug,1
same,Colonies/Cultures,"[4]; Al-1, 10,000 cells, stimulus 5 ug",2
same,Colonies/Cultures,[5]; stimulus 5 ug,190
same,Effect on colony counts of the other factors,Ewing's Sarcoma cells,with the exception of TNF-α showed any effect on colony counts
aFGF: commercially available growth factor,Colonies/Cultures,[1]; [6],260
same,Colonies/Cultures,[2]; [6],58
same,Colonies/Cultures,[3]; [6],128
same,Colonies/Cultures,[4]; [7],57
same,Colonies/Cultures,[4]; [8],975
same,Colonies/Cultures,[5]; [6],520
